Reference: patent publication US20190256564A1, “NEMERTEA-DERIVED BIOACTIVE COMPOUNDS” (priority 2016, published 2019)

Tested on: Artemia salina
Details: in vivo, 24 h
Protocol: Alpha-Nemertides were prepared as described in Example 2, above, or by manual synthesis […] on 2-chlorotrityl resin as described in the Material and methods section below. […]. The brine shrimp assay is commonly used as toxicity assay, but is particularly suitable in the current work as a model system for crustaceans. In the first round of experiments Nemertides α-1, α-2, α-5, and α-6 were evaluated. […]. Artemia salina Assay of Alpha-Nemertides. 100 μl of sea water containing about 20-30 brine shrimps were added to each experimental well of a 96-well microplate. 100 μl of peptide solutions were then added to each well. As a control, some wells were filled with 100 μl of seawater containing shrimps and 100 μl milliQwater. The plates were covered and incubated in the dark at room temperature for 24 hours. After 24 hours, 10 second video clips of each well were filmed through a microscope. The shrimps were subsequently counted and categorized as either dead (not moving), affected (moving slowly, mostly at the bottom of the well) or normal (moving normally compared to the control at all levels of the well). The shrimps were then immobilized by addition of 100 μl of methanol. After 1 hour the total number of shrimps in each well was counted and the ratio (dead+affected)/total was calculated.

Question: `CC[C@H](C)[C@@H]1NC(=O)[C@@H](NC(=O)CN)CSSC[C@@H]2NC(=O)[C@@H]3CSSC[C@@H](C(=O)N[C@@H](CC(N)=O)C(=O)N4C[C@H](O)C[C@H]4C(=O)N4C[C@H](O)C[C@H]4C(=O)N[C@@H](CC(N)=O)C(=O)N[C@@H](CCC(N)=O)C(=O)O)NC(=O)[C@H](Cc4c[nH]cn4)NC(=O)[C@H](Cc4ccccc4)NC(=O)[C@H](CC(N)=O)NC(=O)[C@H](Cc4c[nH]c5ccccc45)NC(=O)CNC(=O)[C@H](CSSC[C@H](NC(=O)[C@H](Cc4ccccc4)NC(=O)[C@H](CO)NC(=O)CNC(=O)[C@H]([C@@H](C)O)NC(=O)[C@H](C)NC1=O)C(=O)N[C@@H]([C@@H](C)O)C(=O)N[C@@H](CC(C)C)C(=O)N[C@@H](CO)C(=O)N[C@@H](CCCCN)C(=O)NCC(=O)N3)NC(=O)[C@H](CC(N)=O)NC(=O)[C@H](CCCCN)NC(=O)[C@H]([C@@H](C)O)NC2=O` [Nemertide α-5] was tested. Which IC50 did it give?
Answer: The IC50 was < 1 µM.
